Experimental data as given in patent publication US20050245472A1, “Engineered rnai adenovirus silencing expression (erase) of dna reair proteins” (The Johns Hopkins University, priority 2003, published 2005).

System: DU 145 cells
Experiment: Clonogenic survival after ionizing radiation
Format: cell-based, human
Conditions: DU 145, 10 μM, one hour before and 24 hours after irradiation, vs DMSO

Compound	DRF, ionizing radiation	DRF, ionizing radiation (DRF at 80% clonogenic cell killing)
COC[C@H]1OC(=O)c2coc3c2[C@@]1(C)C1=C(C3=O)[C@@H]2CCC(=O)[C@@]2(C)C[C@H]1OC(C)=O [Wortmannin]	1.4	
O=c1cc(N2CCOCC2)oc2c(-c3ccccc3)cccc12 [LY294002]		1.1
